Experimental findings from PubChem BioAssay AID179 (DTP/NCI, 2004) are described below.

As a reminder, the EC50 is the concentration needed to bring the measured effect to its halfway point. A word on the IC50: it is the point on the concentration scale where inhibition reaches its midpoint. Higher therefore signals weaker potency in that assay.

Activity calls are given as the source filed them.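 Rule for the calls: active = compounds giving half or more protection of infected cells from virus-caused growth loss, again on retest; inactive = the rest.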

This assay has as its system CEM cells HIV-1 protection, formazan growth assay. The assay is described as follows: NCI AIDS Antiviral Assay. The following applies: for IC50: measured here: growth of uninfected CEM cells. The essentials: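 Five concentrations of each compound were applied to infected and uninfected human CEM cells. Protection from HIV-1 was judged from growth measured with a soluble formazan assay.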

With `COc1cc(-c2ccc(N=Nc3cc(S(=O)(=O)O)c4cccc(S(=O)(=O)O)c4c3N)c(OC)c2)ccc1N=Nc1cc(S(=O)(=O)O)c2cccc(S(=O)(=O)O)c2c1N`, the EC50 is 14.1 µM and the IC50 turned out to be 89.1 µM. Consider `O=c1[nH]c(=O)n(C2CC(O)C(CO)O2)cc1C#Cc1ccc(C(F)(F)F)cc1` (centres undefined), for which the EC50 was more than 631 µM and the IC50 worked out at 91.2 µM. Take `CC(=O)NC1(C)C(C)C2CC1C(C)C2(C)C` (centres undefined): the EC50 was more than 85.1 µM and the IC50 is more than 85.1 µM.

Take `O=S(=O)(O)NC1CCCCC1`: the EC50 was more than 200 µM and the IC50 was more than 200 µM. For the molecule `O=C(O)c1ccc(SSc2ccc(C(=O)O)cc2)cc1`, the EC50 was 123 µM and the IC50 is more than 200 µM.

With `O=C1OC2(c3ccccc31)c1ccccc1-c1ccccc12`, the EC50 was more than 66.1 µM and the concentration for half-maximal inhibition (IC50) was more than 66.1 µM.

Take `CC(C)(c1ccc(C=O)o1)c1ccc(C(C)(C)c2ccc(C=O)o2)o1`: the result was inactive. For the molecule `O=C1C2=Cc3ccccc3OC2(O)Oc2ccc(O)cc21` (centres undefined), the EC50 is more than 200 µM and the IC50 stood at 50.1 µM. The like results for `Cc1ccc(N2C(=O)/C(=C3\Sc4c(nc(C)[nH]c4=O)N3c3ccccc3)SC2=S)cc1` were, in that order, more than 4.07 µM and more than 4.07 µM. On the same counts, the results for `O=[N+]([O-])c1ccc(N2N=C(c3ccc4ccccc4c3O)CC2c2ccc(Cl)cc2Cl)c([N+](=O)[O-])c1` (centres undefined) are more than 200 µM and 42.7 µM. `Cc1nc2sccn2c1C(=O)NC(=O)Nc1ccc(Cl)cc1`: the EC50 was more than 20.4 µM and the IC50 was more than 20.4 µM. Regarding `Cc1ccc(S(=O)(=O)OC[C@@H]2CO2)cc1`, the EC50 was more than 115 µM and the IC50 was 14.1 µM. For `S=C1NCCNC(=S)SSC(=S)SS1`, the EC50 is more than 2.34 µM and the IC50 is more than 2.34 µM.

For the molecule `CCOC(=O)c1ccc(N=C2C(=S)N(c3ccc(C(=O)OCC)cc3)C(=N)N2/N=C/c2ccccc2)cc1`, the EC50 was more than 200 µM and the IC50 was found to be 3.24 µM. The like results for `CC(=O)NC(Cc1ccccc1)C(=S)N1CCCC1` (centres undefined) were, in that order, more than 912 µM and 776 µM. Take `S=C1NC(/C=C/c2ccccc2)N2C(=S)NC(/C=C\c3ccccc3)N12` (centres undefined): the outcome was inactive. In the case of `O=C1C(=C2SC(c3ccccc3)(c3ccccc3)c3ccccc32)C(=O)c2ccccc21`, the EC50 was more than 200 µM and the IC50 was more than 200 µM. In the case of `COc1ccc(/C=C\c2cc(OC)c(OC)c(OC)c2)cc1OC(=O)CC(N)C(=O)O` (centres undefined), the EC50 is more than 0.2 µM and the IC50 stood at 0.000309 µM.

For `COc1cc(OC)cc(C(=O)CC(=O)c2cc(OC)cc(OC)c2)c1`, the EC50 was more than 20.9 µM and the IC50 was determined as 15.5 µM. On the same counts, the results for `O=C(CP(=O)(O)O)c1cccs1` are more than 1200 µM and more than 1200 µM. The like results for `CC(SC(=S)N1CCOCC1)c1cc2oc(=O)n(C)c2cc1Cl` (centres undefined) were, in that order, more than 10 µM and more than 10 µM. The like results for `OCCOc1ccc(-c2cc(-c3ccccn3)nc(-c3ccccn3)c2)cc1` were, in that order, more than 3.72 µM and 0.646 µM. As for `C[C@H]1S[C@H](c2c(F)cccc2F)n2c1nc1ccccc12`, the EC50 was more than 200 µM and the IC50 was determined as 33.9 µM. For `CCOC(=O)N1CCc2cc(OC)c(OC)cc2/C1=C/c1ccc(OC)c(OC)c1`, the outcome was inactive. On to `CC(C#N)(c1ccccc1)N(CCc1ccccc1)C(=O)Oc1ccccc1` (centres undefined), for which the EC50 is more than 200 µM and the concentration for half-maximal inhibition (IC50) was more than 200 µM.

For `Cn1c2ccc3cc2c(=S)c2cc(ccc21)OCCOCCOCCOCCOCCOCCO3`, the EC50 is more than 200 µM and the IC50 amounted to 186 µM. The like results for `COc1ccc(C(=O)C#Cc2cnc(OC)nc2OC)cc1` were, in that order, more than 2 µM and 0.363 µM. Regarding `COc1cc2ccnc3c2c(c1OC)-c1coc(SC)c1-3`, the outcome was inactive. As for `Cc1ccc(S(=O)(=O)C(C#N)c2nc3ccccc3nc2-n2ccnc2)cc1` (centres undefined), the EC50 was more than 200 µM and the IC50 came out at 155 µM. The like results for `COc1cc(C)c(C(=O)/C=C/c2cc(OC)c(O)c(OC)c2)cc1O` were, in that order, more than 275 µM and 12.9 µM.

For `NCCCCCC(CCN)SCC1OC(n2cnc3c(N)ncnc32)C(O)C1O` (centres undefined), the EC50 was more than 200 µM and the IC50 is 107 µM.

On to `CCC1CC(C)=CCN1S(=O)(=O)c1ccc(C)cc1` (centres undefined), for which the EC50 was more than 18.6 µM and the IC50 was more than 18.6 µM. On to `CC12CC(=O)C3C(C(=O)C1)C32C` (centres undefined), for which the EC50 was more than 200 µM and the IC50 is more than 200 µM. Consider `CC1=C2C3CCCC(C3=O)[C@H](C)C2CC1=O` (some centres undefined), for which the result was inactive.

In the case of `CC(C)(Oc1ccc2c(=O)cc(-c3ccc(Cl)cc3)oc2c1)C(=O)Nc1c(Cl)cccc1Cl`, the EC50 was more than 10.2 µM and the IC50 is more than 10.2 µM. Take `O=c1c(Cl)c(N2CCOCC2)cnn1-c1ccccc1`: the EC50 was more than 234 µM and the IC50 was 209 µM. As for `NC(CCSCCF)C(=O)O` (centres undefined), the EC50 is more than 692 µM and the IC50 is 102 µM. Turning to `NCCNCCN1C(=O)c2cccc3cccc(c23)C1=O`, the EC50 is more than 200 µM and the IC50 worked out at 7.59 µM. As to `Cc1cc(Br)ccc1N=Nc1c(C)nn(-c2ccccc2)c1-c1ccccc1`, the outcome was inactive.

Turning to `COc1cc2c3c(c1OC)C1(C=CC(=O)C=C1)CC3N(C(C)=O)CC2` (centres undefined), the outcome was inactive.

Consider `CC[C@@]1(O)C(=O)OCc2c1cc1n(c2=O)Cc2cc3cc4c(cc3nc2-1)OCO4`, for which the EC50 was more than 0.002 µM and the IC50 came out at 0.000331 µM.

As to `CC(=O)N=C1N(/C=C2\C(=O)Oc3ccccc3C2=O)C(=O)/C(=C/c2ccccc2Cl)N1C`, the EC50 was more than 200 µM and the IC50 worked out at 148 µM. On the same counts, the results for `COc1ccc(C(=O)N2CCN(c3ccc4c(c3)OCC(=O)N4)CC2)cc1` are more than 200 µM and more than 200 µM. As to `CCCCCNC(=O)C1C(=O)N(CCCCC)C(=O)/C1=N\N` (centres undefined), the EC50 is more than 12 µM and the IC50 was more than 12 µM. `N#C/C(C(=S)NCc1ccccc1)=C1/Nc2ccccc2O1`: the EC50 is more than 200 µM and the IC50 turned out to be 33.1 µM.

`O=S1(=O)C=C2CCCCC21` (centres undefined): the EC50 was more than 1580 µM and the IC50 was more than 1580 µM. For the molecule `Cn1c(=O)c2c(ncn2CCCCOc2ccc3c(c2)[n+]([O-])nc(N)[n+]3[O-])n(C)c1=O`, the EC50 is more than 200 µM and the half-maximal inhibitory concentration (IC50) stood at 23.4 µM. Turning to `Cn1c(-c2cccs2)cc(-c2ccsc2)c1-c1cccs1`, the outcome was inactive.

With `CC#N.CC#N.COC(=O)[C@H]1CCC(=O)[N-]1.COC(=O)[C@H]1CCC(=O)[N-]1.COC(=O)[C@H]1CCC(=O)[N-]1.COC(=O)[C@H]1CCC(=O)[N-]1.[Rh+2].[Rh+2]`, the EC50 is more than 200 µM and the IC50 is more than 200 µM. Turning to `O=c1nc2c(c(-c3ccccc3Cl)[nH]1)COC/C2=C\c1ccccc1Cl`, the EC50 is more than 200 µM and the 50% inhibitory concentration (IC50) was found to be 89.1 µM.

Regarding `COc1cccc(C2SCc3nc4ccccc4n32)c1` (centres undefined), the result was inactive.

With `Cc1ccc(O)c(Cc2cc(C)cc(Cc3cc(C)ccc3O)c2O)c1`, the EC50 is more than 102 µM and the IC50 was found to be 20 µM. Turning to `N#CC(C#N)=CN1CCCC1`, the EC50 was more than 200 µM and the IC50 was more than 200 µM. As for `CCOC(=O)C(NC(=O)c1ccccc1)[CH](c1ccccc1)[Sn]([c]1ccccc1)([c]1ccccc1)[c]1ccccc1` (centres undefined), the EC50 was more than 200 µM and the IC50 worked out at 20.4 µM. In the case of `COc1cc(/C=N\NS(=O)(=O)c2ccc(N)cc2)ccc1O`, the EC50 is more than 295 µM and the IC50 came to 209 µM.

`COc1ccc(C2Oc3c(cc(O)c(OC)c3C)[C@@H]2C)cc1OC` (some centres undefined): the EC50 is more than 79.4 µM and the IC50 was found to be 47.9 µM.

`C[N+](C)([O-])CCNC(=O)c1cccc2cc3ccccc3nc12`: the outcome was inactive.

In the case of `CCOC(=O)C1C[C@@H](O)CN1C(=O)c1ccc2c(c1)OCCO2` (some centres undefined), the EC50 is more than 200 µM and the half-inhibitory concentration (IC50) is more than 200 µM. Take `Cc1cc(NC(=O)c2ccc(NC(=O)c3ccccc3)cc2)ccc1N=Nc1ccc(N=Nc2ccc3c(O)cc(S(=O)(=O)O)cc3c2)c2cc(S(=O)(=O)O)ccc12`: the 50% effective concentration (EC50) was 6.17 µM and the IC50 came to 50.1 µM.

As to `O=S(=O)(c1ccccc1)c1cccc2c1NCCC2`, the concentration for a half-maximal effect (EC50) was 21.9 µM and the IC50 was 95.5 µM. For the molecule `c1ccc(SC(CCCCC(Sc2ccccc2)Sc2ccccc2)Sc2ccccc2)cc1`, the result was inactive. On the same count and under the same terms, with `CCOC(=O)NC(=O)c1cn(CCNCCO)c(=O)[nH]c1=O` the entry was “inactive”. Consider `Cc1ccc2c(c1)C(=O)/C(=C1/CCc3ccc(C)cc31)C2`, for which the EC50 is more than 200 µM and the IC50 was more than 200 µM. In the case of `C=C1CC2OC(=O)C(=C)C2C(O)C2C(=C)CCC12` (centres undefined), the result was inactive. `CN(C)CCC1(C)OCCC2=C1Cc1ccccc12` (centres undefined): the EC50 was more than 200 µM and the IC50 was 135 µM. On the same counts, the results for `CCOC(=O)C(CS)NC(=O)CCCCCCCC(=O)NC(CS)C(=O)OCC` (centres undefined) are more than 200 µM and 102 µM. The like results for `CC1CCCCC12C(C#N)(C#N)C2(C#N)C#N` (centres undefined) were, in that order, more than 20 µM and 9.55 µM.

On to `O=C(O)CN(c1ccc(F)cc1)S(=O)(=O)c1ccccc1`, for which the result was inactive. For the molecule `CCOc1ccccc1N1C(=O)C(=O)C(c2nc3ccccc3o2)C(=O)C1=O`, the result was inactive.

As for `CCOP(=O)(OCC)C(C)(C)N(C)/C(F)=N/C(F)(F)F`, the EC50 is more than 200 µM and the IC50 is more than 200 µM.

For `O=c1cc(N2CCNCC2)nc2ccccn12`, the EC50 was more than 200 µM and the IC50 is more than 200 µM. As for `O=S(Cc1cnc2ccccc2c1)c1nc2ccccc2nc1-c1cccs1` (centres undefined), the EC50 was more than 6.76 µM and the IC50 was more than 6.76 µM. With `C[C@]12CCc3nonc3C1CC[C@@H]1C2CC[C@]2(C)NC(=O)CCC12` (some centres undefined), the EC50 was more than 51.3 µM and the IC50 was more than 51.3 µM. For the molecule `NC(=O)C(=O)C1CCC2=C(Sc3ccccc3N2)C1=O` (centres undefined), the EC50 is more than 46.8 µM and the IC50 is more than 46.8 µM. As to `Cc1ccc(S(=O)(=O)c2ccc([N+](=O)[O-])cc2)cc1`, the outcome was inactive.
